Laboratory results from US20200017496A1 (priority 2017, published 2020).
Read-outs that look alike come from different tables or passages of the source.

Key:
Test in all cases: MIC of compounds alone and combined with antibacterials, broth microdilution (CLSI)
Format in all cases: cell-based
[1] = test system: Enterobacter cloacae (ECL) isolates; details: for MIC: Enterobacter cloacae, ATB alone
Procedure, shortened: (§1)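 First, log-phase suspensions are brought to a final 5·10^5 CFU/mL in cation-adjusted Mueller-Hinton broth. Then plates with compound, antibacterial, or both incubate 16-20 h at 35° C under ambient air. Finally, visual inspection gives the lowest growth-preventing concentration for each agent.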

[2] = test system: Escherichia coli (ECO) isolates; details: for MIC ATB in combination: AF1 @ 4 μg/mL; for MIC: Escherichia coli
Procedure, shortened: as §1

[3] = test system: Enterobacter aerogenes (EAE) isolates; details: for MIC ATB in combination: AF1 @ 4 μg/mL; for MIC: Klebsiella aerogenes
Procedure, shortened: as §1

CO/N=C(\C(=O)N[C@@H]1C(=O)N2C(C(=O)O)=C(COC(N)=O)CS[C@H]12)c1ccco1 [FUR, Cefuroxime]
> 128 µg/mL: MIC ([3]; strain EAE 49469 (AmpC), ATB alone, read-out: MIC)
8 µg/mL: MIC ATB in combination ([2]; ECO 190457) | MIC ATB in combination ([2]; ECO RGN238) | MIC ATB in combination ([2]; ECO UFR61O) | MIC ATB in combination ([2]; ECO UFR62) | MIC ATB in combination ([2]; ECO UFR175) | MIC ATB in combination ([2]; ECO UFR187) | MIC ATB in combination ([2]; ECO UFR190) | MIC ATB in combination ([2]; ECO UFR191) | MIC ATB in combination ([2]; ECO UFR211) | MIC ([2]; strain ECO 131119 (TEM-1, OXA-48), ATB alone) | MIC ATB in combination ([3]; EAE UFR199) | MIC ATB in combination ([3]; EAE UFR213)
32 µg/mL: MIC ATB in combination ([1]; ECL 200322, AF1 @ 4 μg/mL) | MIC ATB in combination ([1]; ECL 260508, AF1 @ 4 μg/mL) | MIC ATB in combination ([1]; ECL UFR70, AF1 @ 4 μg/mL) | MIC ATB in combination ([1]; ECL UFR194, AF1 @ 4 μg/mL) | MIC ([1]; strain ECL UFR194 (OXA-48)) | MIC ATB in combination ([1]; strain ECL UFR195, antibacterial combined with AF1 @ 4 μg/mL) | MIC ATB in combination ([2]; ECO UFR18) | MIC ATB in combination ([2]; ECO UFR86) | MIC ([2]; strain ECO 5302 (TEM-1, OXA-1), ATB alone) | MIC ATB in combination ([3]; EAE UFR202)
4 µg/mL: MIC ATB in combination ([1]; ECL 190408, AF1 @ 4 μg/mL) | MIC ATB in combination ([2]; ECO 4133) | MIC ATB in combination ([2]; ECO 5302) | MIC ATB in combination ([2]; ECO 131119) | MIC ATB in combination ([2]; ECO 180070) | MIC ATB in combination ([2]; ECO 190314) | MIC ATB in combination ([2]; ECO 190317) | MIC ATB in combination ([2]; ECO 200344) | MIC ATB in combination ([2]; ECO 260096) | MIC ATB in combination ([2]; ECO 260304) | MIC ATB in combination ([2]; ECO UFR176) | MIC ATB in combination ([2]; ECO UFR209) | MIC ATB in combination ([2]; ECO UFR218)
> 256 µg/mL: MIC ([1]; strain ECL UFR197 (TEM-1, CTX-M-15, OXA-1, OXA-48)) | MIC ([1]; strain ECL UFR198 (TEM-1, SHV-12, CTX-M-15, DHA-1, OXA-1, OXA-48)) | MIC ([1]; strain ECL 2185D (OXA-163)) | MIC ([1]; strain ECL 190310 (AmpC)) | MIC ([1]; strain ECL 190408 (TEM-1, CTX-M-15, OXA-1)) | MIC ([1]; strain ECL 200138 (AmpC)) | MIC ([1]; strain ECL 200322 (TEM-1, CTX-M-15, OXA-1)) | MIC ([1]; strain ECL 260033 (AmpC)) | MIC ([1]; strain ECL 260253 (TEM-1, KPC-3)) | MIC ([1]; strain ECL 260323 (AmpC)) | MIC ([1]; strain ECL 260508 (TEM-1, CTX-M-15)) | MIC ([1]; strain ECL NEM146383 (AmpC)) | MIC ([1]; strain ECL UFR12 (CTX-M-9, OXA-48)) | MIC ([1]; strain ECL UFR13 (TEM-1, SHV-12, CTX-M-9, OXA-48)) | MIC ([1]; strain ECL UFR14 (TEM-1, SHV-12, CTX-M-15, DHA-1, OXA-1, OXA-48)) | MIC ([1]; strain ECL UFR60 (TEM-1, CTX-M-15, KPC-2)) | MIC ([1]; strain ECL UFR70 (TEM-1, CTX-M-15, CMY-2, OXA-1, Porin loss)) | MIC ([1]; strain ECL UFR84 (TEM-1, AmpC, OXA-1)) | MIC ([1]; strain ECL UFR85 (TEM-1, CTX-M-15, AmpC)) | MIC ([1]; strain ECL UFR195 (TEM-1, CTX-M-15, OXA-1, OXA-48)) | MIC ([1]; strain ECL UFR196 (TEM-1, CTX-M-15, OXA-1, OXA-48)) | MIC ([1]; strain ECL UFR200 (TEM-1, SHV-12, KPC-2)) | MIC [2] | MIC ([2]; strain ECO 180070 (TEM-1, CTX-M-15), ATB alone, read-out: MIC) | MIC ([2]; strain ECO 190314 (CTX-M-1), ATB alone, read-out: MIC) | MIC ([2]; strain ECO 190457 (CTX-M-15, OXA-1), ATB alone, read-out: MIC) | MIC ([2]; strain ECO 190549 (CTX-M-1), ATB alone, read-out: MIC) | MIC ([2]; strain ECO 200159 (TEM-1, CTX-M-14), ATB alone, read-out: MIC) | MIC ([2]; strain ECO 200259 (CTX-M-14), ATB alone, read-out: MIC) | MIC ([2]; strain ECO 200344 (CTX-M-1), ATB alone, read-out: MIC) | MIC ([2]; strain ECO 260096 (CTX-M-132), ATB alone, read-out: MIC) | MIC ([2]; strain ECO 260304 (CTX-M-15), ATB alone, read-out: MIC) | MIC ([2]; strain ECO 260508 (TEM-1, CTX-M-15, OXA-1), ATB alone, read-out: MIC) | MIC ([2]; strain ECO UFR16 (TEM-1, CTX-M-15, OXA-1, OXA-48), ATB alone, read-out: MIC) | MIC ([2]; strain ECO UFR17 (TEM-1, CTX-M-15, CMY-2, OXA-1, OXA-181), ATB alone, read-out: MIC) | MIC ([2]; strain ECO UFR18 (CTX-M-15, OXA-204), ATB alone, read-out: MIC) | MIC ([2]; strain ECO UFR19 (CTX-M-15, CMY-2, OXA-1, OXA-204), ATB alone, read-out: MIC) | MIC ([2]; strain ECO UFR20 (SHV-1, CTX-M-15, OXA-1, OXA-232), ATB alone, read-out: MIC) | MIC ([2]; strain ECO UFR74 (SHV-1, DHA-1), ATB alone, read-out: MIC) | MIC ([2]; strain ECO UFR184 (CTX-M-15, CMY-4, OXA-1, OXA-204), ATB alone, read-out: MIC) | MIC ([2]; strain ECO UFR185 (OXA-48), ATB alone, read-out: MIC) | MIC ([2]; strain ECO UFR186 (TEM-1, CTX-M-14, OXA-48), ATB alone, read-out: MIC) | MIC ([2]; strain ECO UFR187 (CTX-M-15, OXA-48), ATB alone, read-out: MIC) | MIC ([2]; strain ECO UFR189 (TEM-1, CTX-M-15, OXA-48), ATB alone, read-out: MIC) | MIC ([2]; strain ECO UFR190 (CTX-M-24, OXA-48), ATB alone, read-out: MIC) | MIC ([2]; strain ECO UFR191 (TEM-1, CTX-M-24, OXA-48), ATB alone, read-out: MIC) | MIC ([2]; strain ECO UFR207 (CTX-M-15), ATB alone, read-out: MIC) | MIC ([2]; strain ECO UFR208 (SHV-12), ATB alone, read-out: MIC) | MIC ([2]; strain ECO UFR209 (TEM-1, CTX-M-15), ATB alone, read-out: MIC) | MIC ([2]; strain ECO UFR210 (SHV-12), ATB alone, read-out: MIC) | MIC ([2]; strain ECO UFR212 (CMY-2), ATB alone, read-out: MIC) | MIC ([2]; strain ECO UFR218 (TEM-1, SHV-1, CTX-M-15), ATB alone, read-out: MIC) | MIC [3] | MIC ([3]; strain EAE 200261 (TEM-x, AmpC), ATB alone, read-out: MIC) | MIC ([3]; strain EAE UFR201 (TEM-1, SHV-12, CTX-M-15), ATB alone, read-out: MIC) | MIC ([3]; strain EAE UFR202 (TEM-24), ATB alone, read-out: MIC) | MIC ([3]; strain EAE UFR213 (TEM-24), ATB alone, read-out: MIC)
16 µg/mL: MIC ATB in combination ([1]; ECL UFR12, AF1 @ 4 μg/mL) | MIC ATB in combination ([1]; ECL UFR200, AF1 @ 4 μg/mL) | MIC ATB in combination ([2]; ECO UFR16) | MIC ATB in combination ([2]; ECO UFR19) | MIC ATB in combination ([2]; ECO UFR74) | MIC ATB in combination ([2]; ECO UFR186) | MIC ([2]; strain ECO 4133 (TEM-30, OXA-1), ATB alone) | MIC ([2]; strain ECO RGN238 (OXA-1), ATB alone) | MIC ([2]; strain ECO UFR15 (TEM-1, OXA-48), ATB alone)
2 µg/mL: MIC ATB in combination ([2]; ECO 190549) | MIC ATB in combination ([2]; ECO 200159) | MIC ATB in combination ([2]; ECO 200259) | MIC ATB in combination ([2]; ECO 260508) | MIC ATB in combination ([2]; ECO UFR15) | MIC ATB in combination ([2]; ECO UFR174) | MIC ATB in combination ([2]; ECO UFR189) | MIC ATB in combination ([2]; ECO UFR207) | MIC ATB in combination ([2]; ECO UFR210) | MIC ATB in combination ([3]; EAE UFR201)
64 µg/mL: MIC ATB in combination ([1]; ECL P99, AF1 @ 4 μg/mL) | MIC ATB in combination ([1]; ECL UFR60, AF1 @ 4 μg/mL) | MIC ATB in combination ([1]; strain ECL UFR196, antibacterial combined with AF1 @ 4 μg/mL) | MIC ATB in combination ([1]; strain ECL UFR197, antibacterial combined with AF1 @ 4 μg/mL) | MIC ATB in combination ([2]; ECO UFR20) | MIC ATB in combination ([2]; ECO UFR184) | MIC ([2]; strain ECO UFR86 (ompC-, ompF-), ATB alone, read-out: MIC) | MIC ATB in combination ([3]; EAE 49469) | MIC ATB in combination ([3]; EAE 200261)
> 512 µg/mL: MIC ([1]; strain ECL P99 (AmpC), read-out: MIC) | MIC ([2]; strain ECO 190317 (TEM-1, SHV-12, CTX-M-15, OXA-1), ATB alone)
